According to BigSolDB 2.1:

CC1=CC(=O)[N-]S(=O)(=O)O1.[K+]
Conditions	solubility (mole fraction)
in ethanol, 277.1 K	0.000123
in ethanol, 282.39 K	0.000154
in ethanol, 287.47 K	0.000176
in ethanol, 292.3 K	0.0002
in ethanol, 297.55 K	0.000226
in ethanol, 302.65 K	0.000259
in ethanol, 307.9 K	0.0003
in ethanol, 312.93 K	0.000396
in ethanol, 317.87 K	0.000496
in ethanol, 322.9 K	0.000634
in methanol, 277.7 K	0.000156
in methanol, 281.79 K	0.000173
in methanol, 286.1 K	0.000189
in methanol, 290.39 K	0.000205
in methanol, 294.2 K	0.000222
in methanol, 298.51 K	0.000238
in methanol, 302.21 K	0.000256
in methanol, 307.8 K	0.000288
in methanol, 311.39 K	0.000313
in methanol, 315.47 K	0.000341
in methanol, 319.3 K	0.000371
in methanol, 322.8 K	0.000401
in water, 277.98 K	0.000151
in water, 281.23 K	0.000167
in water, 284.73 K	0.000186
in water, 288.35 K	0.000207
in water, 294.9 K	0.000249
in water, 298.02 K	0.000271
in water, 301.03 K	0.000292
in water, 304.01 K	0.000314
in water, 307.07 K	0.000338
in water, 310.24 K	0.000363
in water, 313.53 K	0.00039
in water, 317.3 K	0.000419
in water, 322.3 K	0.000474
